The source made the active and inactive calls. No cut-off for these calls is given here.
Assays:
[1] = tested on: LN-229; assay: Inhibition of sphere formation in human LN-229 cells assessed as fold reduction in sphere initiating frequency at 8 uM incubated for 10 days by microscopic analysis relative to control; format: functional; conditions: time 10 day
[2] = tested on: Hs 683; assay: Inhibition of colony formation in human Hs 683 cells assessed as reduction in number of cell clones treated on day 1 and measured after 14 days by crystal violet staining based microscopic analysis; format: functional; conditions: dose 0.625-5 µM, time 14.0 day
[3] = tested on: LN-229; assay: Antitumor activity against human LN-229 cells xenografted in BALB/c nude mouse assessed as reduction in proportion of Ki-67 positive cells at 15 to 45 mg/kg, po administered once a day and measured after 49 days by immunohistochemistry analysis; format: functional, organism-based; conditions: dose 15-45 mg/kg, time 49.0 day
[4] = Drug uptake in Sprague-Dawley rat blood at 10 to 90 ng/ml, po administered as single dose and measured after 8 hrs by LC-MS/MS analysis; format: ADME, organism-based; conditions: in vivo, dose 10-90 ng/ml
[5] = tested on: LN-229; assay: Inhibition of sphere formation in human LN-229 cells at 2 uM measured after 10 days in well containing 10000 cells by microscopic analysis; format: functional, cell-based; conditions: time 10.0 day
[6] = Drug concentration in male Sprague-Dawley rat lung at 45 mg/kg, po measured after 8 hrs by LC-MS/MS analysis; format: ADME, organism-based; conditions: read-out: Ct
[7] = tested on: U-251; assay: Inhibition of sphere formation in human U-251MG cells at 1 uM measured after 10 days in well containing 10000 cells by microscopic analysis; format: functional, cell-based; conditions: time 10.0 day
[8] = tested on: U-251; assay: Inhibition of sphere formation in human U-251MG cells at 1 uM measured after 10 days in well containing 1 cells by microscopic analysis; format: functional, cell-based; conditions: time 10.0 day
[9] = tested on: MDR1; assay: Apparent permeability across apical to basolateral side in MDCKII-MDR1 cells at 1 uM incubated for 2 hrs by LC-MS/MS analysis; format: ADME, cell-based, Canis lupus familiaris; conditions: dog, MDCK-MDR1
[10] = tested on: H4; assay: Inhibition of sphere formation in human H4 cells at 2 uM measured after 10 days in well containing 10000 cells by microscopic analysis; format: functional, cell-based; conditions: time 10.0 day
[11] = tested on: MDR1; assay: Efflux ratio of apparent permeability across basolateral to apical side over apical to basolateral side in MDCKII-MDR1 cells at 1 uM incubated for 2 hrs by LC-MS/MS analysis; format: ADME, cell-based, Canis lupus familiaris; conditions: dog, MDCK-MDR1
[12] = tested on: Hs 683; assay: Inhibition of sphere formation in human Hs 683 cells at 4 uM measured after 10 days in well containing 1 cells by microscopic analysis; format: functional, cell-based; conditions: time 10.0 day
[13] = biological target: T1, BUB3-interacting and GLEBS motif-containing protein ZNF207 (Homo sapiens, UniProt O43670); assay: Binding affinity to human ZNF207 assessed as dissociation constant by SPR analysis
T1 sequence (O43670 whole entry): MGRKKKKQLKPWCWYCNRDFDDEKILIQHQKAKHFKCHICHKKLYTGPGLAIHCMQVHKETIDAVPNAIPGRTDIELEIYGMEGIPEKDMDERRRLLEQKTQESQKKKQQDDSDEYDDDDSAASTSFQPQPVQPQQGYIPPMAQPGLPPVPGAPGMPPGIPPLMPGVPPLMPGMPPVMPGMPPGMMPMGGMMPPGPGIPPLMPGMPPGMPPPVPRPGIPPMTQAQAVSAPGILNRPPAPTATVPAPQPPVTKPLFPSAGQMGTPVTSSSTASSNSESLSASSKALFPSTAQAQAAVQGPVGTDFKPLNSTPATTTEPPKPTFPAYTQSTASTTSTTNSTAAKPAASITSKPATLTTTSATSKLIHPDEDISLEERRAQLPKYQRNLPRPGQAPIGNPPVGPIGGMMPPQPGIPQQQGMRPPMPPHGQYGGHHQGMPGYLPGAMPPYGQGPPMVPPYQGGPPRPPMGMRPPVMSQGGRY

[14] = tested on: Hs 683; assay: Inhibition of sphere formation in human Hs 683 cells at 2 uM measured after 10 days in well containing 10 cells by microscopic analysis; format: functional, cell-based; conditions: time 10.0 day
[15] = tested on: LN-229; assay: Inhibition of sphere formation in human LN-229 cells at 4 uM measured after 10 days in well containing 10 cells by microscopic analysis; format: functional, cell-based; conditions: time 10.0 day
[16] = biological target: T1, BUB3-interacting and GLEBS motif-containing protein ZNF207; assay: Binding affinity to ZNF207 in human U-251MG cells assessed as thermal stabilization by measuring melting temperature at 30 uM incubated for 3 hrs by CETSA (reference value: 48.7 degreeC); format: cell-based
[17] = tested on: LN-229; assay: Antitumor activity against human LN-229 cells xenografted in BALB/c nude mouse assessed as tumor growth delay by measuring tumor volume at 15 mg/kg, po administered once a day and measured every 2 days for 49 days (reference value: 700 […]); format: functional; conditions: time 49 day
[18] = tested on: LN-229; assay: Inhibition of cell migration in human LN-229 cells assessed as reduction in wound closure ability at 5 uM measured after 48 hrs by wound healing assay relative to control; format: functional
[19] = Toxicity in female C57BL/6 mouse assessed as change in cellular structure of intestine at 45 mg/kg, po administered once a day for 2 weeks by H and E staining based analysis; format: organism-based; conditions: in vivo, 336 h
[20] = Drug concentration in male Sprague-Dawley rat spleen at 45 mg/kg, po measured after 8 hrs by LC-MS/MS analysis; format: ADME, organism-based; conditions: read-out: Ct
[21] = tested on: H4; assay: Inhibition of sphere formation in human H4 cells at 4 uM measured after 10 days in well containing 10 cells by microscopic analysis; format: functional, cell-based; conditions: time 10.0 day
[22] = tested on: H4; assay: Inhibition of sphere formation in human H4 cells incubated for 168 hrs by microscopic analysis; format: functional, cell-based; conditions: H4, 168 h
[23] = tested on: U-251; assay: Inhibition of sphere formation in human U-251MG cells at 2 uM measured after 10 days in well containing 10000 cells by microscopic analysis; format: functional, cell-based; conditions: time 10.0 day
[24] = tested on: LN-229; assay: Inhibition of sphere formation in human LN-229 cells at 8 uM measured after 10 days in well containing 10000 cells by microscopic analysis; format: functional, cell-based; conditions: time 10.0 day
[25] = tested on: U-251; assay: Induction of apoptosis in human U-251MG cells at 1.25 uM incubated for 24 hrs by Annexin V-FITC/PI staining based flow cytometry analysis; format: functional, cell-based
[26] = tested on: LN-229; assay: Inhibition of cell migration in human LN-229 cells assessed as reduction in wound closure ability measured after 24 to 48 hrs by wound healing assay; format: functional, cell-based; conditions: dose 2.5-10 µM, time 24-48 hrs
[27] = tested on: LN-229; assay: Inhibition of sphere formation in human LN-229 cells at 1 uM measured after 10 days in well containing 1000 cells by microscopic analysis; format: functional, cell-based; conditions: time 10.0 day
[28] = tested on: LN-229-Luc; assay: Antitumor activity against human Ln-229-Luc cells xenografted in BALB/c nude mouse assessed as increase in overall survival time at 45 mg/kg, po administered once a day and measured after 3 to 31 days; format: functional, organism-based; conditions: time 3-31 day
[29] = Toxicity in female C57BL/6 mouse assessed as change in cellular structure of kidney at 45 mg/kg, po administered once a day for 2 weeks by H and E staining based analysis; format: organism-based; conditions: in vivo, 336 h
[30] = tested on: U-251; assay: Inhibition of sphere formation in human U-251MG cells assessed as fold reduction in sphere initiating frequency at 4 uM incubated for 10 days by microscopic analysis relative to control; format: functional; conditions: time 10 day
[31] = tested on: LN-229; assay: Inhibition of sphere formation in human LN-229 cells assessed as fold reduction in sphere initiating frequency at 4 uM incubated for 10 days by microscopic analysis relative to control; format: functional; conditions: time 10 day
[32] = tested on: U-251; assay: Inhibition of sphere formation in human U-251MG cells at 2 uM measured after 10 days in well containing 1 cells by microscopic analysis; format: functional, cell-based; conditions: time 10.0 day
[33] = tested on: MDR1; assay: Apparent permeability across basolateral to apical side in MDCKII-MDR1 cells at 1 uM incubated for 2 hrs by LC-MS/MS analysis; format: ADME, cell-based, Canis lupus familiaris; conditions: dog, MDCK-MDR1
[34] = tested on: H4; assay: Inhibition of sphere formation in human H4 cells at 2 uM measured after 10 days in well containing 100 cells by microscopic analysis; format: functional, cell-based; conditions: time 10.0 day
[35] = Toxicity in male C57BL/6 mouse assessed as change in cellular structure of stomach at 45 mg/kg, po administered once a day for 2 weeks by H and E staining based analysis; format: organism-based; conditions: in vivo, 336 h
[36] = tested on: U-251; assay: Inhibition of sphere formation in human U-251MG cells incubated for 168 hrs by microscopic analysis; format: functional, cell-based; conditions: U-251, 168 h
[37] = tested on: H4; assay: Inhibition of sphere formation in human H4 cells assessed as fold reduction in sphere initiating frequency at 8 uM incubated for 10 days by microscopic analysis relative to control; format: functional; conditions: time 10 day
[38] = tested on: Hs 683; assay: Inhibition of sphere formation in human Hs 683 cells at 1 uM measured after 10 days in well containing 10000 cells by microscopic analysis; format: functional, cell-based; conditions: time 10.0 day

Question: Which “fold change (FC)” value [1] does the source give for `N#CC1(C(=O)NCCC2CCN(Cc3ccccc3)CC2)CC2(Br)c3ccccc3C1c1ccccc12` (racemic) here?
Answer: The value was 107.58.

Question: What about the inhibition [2] of the same compound?
Answer: Its inhibition is “Dose-Dependent Effect”.

Question: And the Activity [3]?
Answer: The Activity was “Active”.

Question: And the Drug uptake [4]?
Answer: Its Drug uptake is “Active”.

Question: And the inhibition [5]?
Answer: The inhibition was “inactive”.

Question: What about the concentration at 8 h [6] of the same compound?
Answer: Its concentration at 8 h is 2050 ng/g.

Question: What about the inhibition [7] of the same compound?
Answer: The inhibition was “inactive”.

Question: And the inhibition [8]?
Answer: The inhibition was “Active”.

Question: And the Papp A→B at 2 h, 1 µM [9]?
Answer: Its Papp A→B at 2 h, 1 µM is 1.26 ×10⁻⁶ cm/s.

Question: What about the inhibition [10] of the same compound?
Answer: The inhibition was “inactive”.

Question: And the efflux ratio at 2 h, 1 µM [11]?
Answer: The efflux ratio at 2 h, 1 µM was 3.25.

Question: And the inhibition [12]?
Answer: Its inhibition is “Active”.

Question: What about the Kd [13] of the same compound?
Answer: The Kd was 67 nM.

Question: What about the inhibition [14] of the same compound?
Answer: The inhibition was “Active”.

Question: What about the inhibition [15] of the same compound?
Answer: The inhibition was “Active”.

Question: What about the Tm [16] of the same compound?
Answer: The Tm was 53.9 °C.

Question: What about the Activity [17] of the same compound?
Answer: Its Activity is 280 mm3.

Question: And the inhibition at 5 µM [18]?
Answer: Its inhibition at 5 µM is 28.4%.

Question: What about the Activity [19] of the same compound?
Answer: Its Activity is “Non-Toxic”.

Question: What about the concentration at 8 h [20] of the same compound?
Answer: Its concentration at 8 h is 655 ng/g.

Question: And the inhibition [21]?
Answer: Its inhibition is “Active”.

Question: And the IC50 [22]?
Answer: Its IC50 is 740 nM.

Question: And the inhibition [23]?
Answer: The inhibition was “inactive”.

Question: What about the inhibition [24] of the same compound?
Answer: The inhibition was “inactive”.

Question: And the Activity [25]?
Answer: Its Activity is “Active”.

Question: And the inhibition [26]?
Answer: The inhibition was “Dose-Dependent Effect”.

Question: And the inhibition [27]?
Answer: The inhibition was “inactive”.

Question: And the Activity [28]?
Answer: The Activity was “Active”.

Question: What about the Activity [29] of the same compound?
Answer: Its Activity is “Non-Toxic”.

Question: And the “fold change (FC)” value [30]?
Answer: Its value is 78.18.

Question: What about the “fold change (FC)” value [31] of the same compound?
Answer: Its value is 36.42.

Question: And the inhibition [32]?
Answer: The inhibition was “Active”.

Question: What about the Papp B→A at 2 h, 1 µM [33] of the same compound?
Answer: Its Papp B→A at 2 h, 1 µM is 4.09 ×10⁻⁶ cm/s.

Question: What about the inhibition [34] of the same compound?
Answer: The inhibition was “Active”.

Question: And the Activity [35]?
Answer: Its Activity is “Non-Toxic”.

Question: What about the IC50 [36] of the same compound?
Answer: Its IC50 is 870 nM.

Question: What about the “fold change (FC)” value [37] of the same compound?
Answer: The value was 51.75.

Question: What about the inhibition [38] of the same compound?
Answer: The inhibition was “inactive”.

Source: ChEMBL document CHEMBL5528066, “Discovery of Novel N-(Anthracen-9-ylmethyl) Benzamide Derivatives as ZNF207 Inhibitors Promising in Treating Glioma” (J Med Chem, 2024)
